From PubChem BioAssay AID330 (DTP/NCI, 2004)
Where “and” joins values, the source holds several entries; their conditions need not be identical. Identical values can stand only once. Toxic doses and inconclusive results are not listed. Rule for the calls: active = survival T/C of 150% or more; inactive = T/C below 125% in these data.

Tested on: P388 leukemia ip, CD2F1 mice, survival T/C
Assay: NCI In Vivo Anticancer Drug Screen. Data for tumor model P388 Leukemia (intraperitoneal) in CD2F1 (CDF1) mice
Conditions: endpoint: median survival time, higher = longer survival
How it was run: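 Mice carrying the transplanted tumor received test compound or vehicle. Survival was recorded in each group, and the value is the treated-group measurement divided by that of the vehicle-treated control group.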

[1] = dose: 12.5 mg/kg/injection, schedule: Q01DX009 (ip), vehicle: Klucel (hydroxypropylcellulose) (HPC)
[2] = dose: 25.0 mg/kg/injection, schedule: Q01DX009 (ip), vehicle: Klucel (hydroxypropylcellulose) (HPC)
[3] = dose: 200.0 mg/kg/injection, schedule: Q01DX009 (ip), vehicle: Klucel (hydroxypropylcellulose) (HPC)
[4] = dose: 50.0 mg/kg/injection, schedule: Q01DX009 (ip), vehicle: Klucel (hydroxypropylcellulose) (HPC)

Measured: T/C

C=C(CC(=O)O)C(N)C(=O)O (stereo not given)
inactive: dose: 60.0 mg/kg/injection, schedule: Q01DX005 (ip), vehicle: Klucel (hydroxypropylcellulose) (HPC) 104 % of control | dose: 120.0 mg/kg/injection, schedule: Q01DX005 (ip), vehicle: Klucel (hydroxypropylcellulose) (HPC) 100 % of control | dose: 240.0 mg/kg/injection, schedule: Q01DX005 (ip), vehicle: Klucel (hydroxypropylcellulose) (HPC) 106 % of control

CC1=CC2C(c3ccccc3)Nc3ccccc3N2C1=O (stereo not given)
inactive: dose: 50.0 mg/kg/injection, schedule: Q01DX009 (ip), vehicle: saline 94 % of control | dose: 100.0 mg/kg/injection, schedule: Q01DX009 (ip), vehicle: saline 100 % of control | dose: 200.0 mg/kg/injection, schedule: Q01DX009 (ip), vehicle: saline 94 % of control

CC1(CO)C(O)CCC2(C)C1CCC1CC3CC12CCC3(O)CO (stereo not given)
inactive: dose: 0.78 mg/kg/injection, schedule: Q03HX024 (ip), vehicle: Klucel (hydroxypropylcellulose) (HPC) 106 % of control | dose: 0.78 mg/kg/injection, schedule: Q03HX024 (oral), vehicle: Klucel (hydroxypropylcellulose) (HPC) 100 % of control | dose: 1.56 mg/kg/injection, schedule: Q03HX024 (ip), vehicle: Klucel (hydroxypropylcellulose) (HPC) 93 % of control | dose: 1.56 mg/kg/injection, schedule: Q03HX024 (oral), vehicle: Klucel (hydroxypropylcellulose) (HPC) 99 % of control | dose: 3.12 mg/kg/injection, schedule: Q03HX024 (ip), vehicle: Klucel (hydroxypropylcellulose) (HPC) 100 % of control | dose: 3.12 mg/kg/injection, schedule: Q03HX024 (oral), vehicle: Klucel (hydroxypropylcellulose) (HPC) 102 % of control | dose: 6.25 mg/kg/injection, schedule: Q03HX024 (ip), vehicle: Klucel (hydroxypropylcellulose) (HPC) 102 % of control | dose: 6.25 mg/kg/injection, schedule: Q03HX024 (oral), vehicle: Klucel (hydroxypropylcellulose) (HPC) 98 % of control | [1] 109 % of control and 113 % of control | dose: 12.5 mg/kg/injection, schedule: Q03HX024 (ip), vehicle: Klucel (hydroxypropylcellulose) (HPC) 106 % of control | dose: 12.5 mg/kg/injection, schedule: Q03HX024 (oral), vehicle: Klucel (hydroxypropylcellulose) (HPC) 100 % of control | [2] 114 % of control and 91 % of control | dose: 25.0 mg/kg/injection, schedule: Q01DX009 (ip), vehicle: saline with Tween-80 112 % of control | dose: 25.0 mg/kg/injection, schedule: Q03HX024 (ip), vehicle: Klucel (hydroxypropylcellulose) (HPC) 119 % of control | dose: 25.0 mg/kg/injection, schedule: Q03HX024 (oral), vehicle: Klucel (hydroxypropylcellulose) (HPC) 100 % of control | dose: 25.0 mg/kg/injection, schedule: Q04DX003 (ip), vehicle: Klucel (hydroxypropylcellulose) (HPC) 100 % of control | dose: 30.0 mg/kg/injection, schedule: Q01DX005 (iv), vehicle: saline with Tween-80 109 % of control | dose: 50.0 mg/kg/injection, schedule: Q01DX009 (ip), vehicle: saline with Tween-80 115 % of control | dose: 50.0 mg/kg/injection, schedule: Q03HX024 (ip), vehicle: Klucel (hydroxypropylcellulose) (HPC) 120 % of control | dose: 50.0 mg/kg/injection, schedule: Q03HX024 (oral), vehicle: Klucel (hydroxypropylcellulose) (HPC) 101 % of control | dose: 50.0 mg/kg/injection, schedule: Q04DX002 (ip), vehicle: Klucel (hydroxypropylcellulose) (HPC) 97 % of control | dose: 50.0 mg/kg/injection, schedule: Q04DX003 (ip), vehicle: Klucel (hydroxypropylcellulose) (HPC) 103 % of control | dose: 60.0 mg/kg/injection, schedule: Q01DX005 (iv), vehicle: saline with Tween-80 107 % of control | dose: 60.0 mg/kg/injection, schedule: Q01DX005 (oral), vehicle: saline with Tween-80 107 % of control | dose: 75.0 mg/kg/injection, schedule: Q04DX002 (ip), vehicle: Klucel (hydroxypropylcellulose) (HPC) 105 % of control | dose: 100.0 mg/kg/injection, schedule: Q01DX009 (ip), vehicle: saline with Tween-80 121 % of control | dose: 100.0 mg/kg/injection, schedule: Q03HX024 (oral), vehicle: Klucel (hydroxypropylcellulose) (HPC) 111 % of control | dose: 100.0 mg/kg/injection, schedule: Q04DX002 (ip), vehicle: Klucel (hydroxypropylcellulose) (HPC) 100 % of control | dose: 100.0 mg/kg/injection, schedule: Q04DX003 (ip), vehicle: Klucel (hydroxypropylcellulose) (HPC) 114 % of control | dose: 120.0 mg/kg/injection, schedule: Q01DX005 (iv), vehicle: saline with Tween-80 100 % of control | dose: 120.0 mg/kg/injection, schedule: Q01DX005 (oral), vehicle: saline with Tween-80 103 % of control | dose: 150.0 mg/kg/injection, schedule: Q04DX002 (ip), vehicle: Klucel (hydroxypropylcellulose) (HPC) 111 % of control | [3] 92 % of control and 96 % of control | dose: 200.0 mg/kg/injection, schedule: Q01DX009 (ip), vehicle: saline with Tween-80 105 % of control | dose: 200.0 mg/kg/injection, schedule: Q01DX009 (oral), vehicle: saline with Tween-80 100 % of control | dose: 200.0 mg/kg/injection, schedule: Q04DX002 (ip), vehicle: Klucel (hydroxypropylcellulose) (HPC) 105 % of control | dose: 200.0 mg/kg/injection, schedule: Q04DX003 (ip), vehicle: Klucel (hydroxypropylcellulose) (HPC) 119 % of control | dose: 240.0 mg/kg/injection, schedule: Q01DX005 (ip), vehicle: saline with Tween-80 109 % of control | dose: 240.0 mg/kg/injection, schedule: Q01DX005 (iv), vehicle: saline with Tween-80 106 % of control | dose: 240.0 mg/kg/injection, schedule: Q01DX005 (oral), vehicle: saline with Tween-80 102 % of control | dose: 300.0 mg/kg/injection, schedule: Q04DX002 (ip), vehicle: Klucel (hydroxypropylcellulose) (HPC) 115 % of control | dose: 400.0 mg/kg/injection, schedule: Q01DX009 (oral), vehicle: saline with Tween-80 103 % of control | dose: 400.0 mg/kg/injection, schedule: Q04DX002 (ip), vehicle: Klucel (hydroxypropylcellulose) (HPC) 117 % of control | dose: 480.0 mg/kg/injection, schedule: Q01DX005 (oral), vehicle: saline with Tween-80 107 % of control | dose: 600.0 mg/kg/injection, schedule: Q04DX002 (ip), vehicle: Klucel (hydroxypropylcellulose) (HPC) 117 % of control | dose: 800.0 mg/kg/injection, schedule: Q01DX009 (oral), vehicle: saline with Tween-80 103 % of control | dose: 800.0 mg/kg/injection, schedule: Q04DX002 (ip), vehicle: Klucel (hydroxypropylcellulose) (HPC) 108 % of control | dose: 800.0 mg/kg/injection, schedule: Q04DX003 (ip), vehicle: Klucel (hydroxypropylcellulose) (HPC) 102 % of control | dose: 1200.0 mg/kg/injection, schedule: Q04DX002 (ip), vehicle: Klucel (hydroxypropylcellulose) (HPC) 118 % of control | dose: 1600.0 mg/kg/injection, schedule: Q01DX009 (oral), vehicle: saline with Tween-80 88 % of control

O=C(O)c1ccccc1SCCO
inactive: [2] 89 % of control | [4] 91 % of control | [3] 90 % of control

c1ccc2c3c([nH]c2c1)CCCC3
inactive: [4] 102 % of control | dose: 100.0 mg/kg/injection, schedule: Q01DX009 (ip), vehicle: Klucel (hydroxypropylcellulose) (HPC) 103 % of control | [3] 111 % of control

Clc1ccccc1N=Cc1ccc(C=Nc2ccccc2Cl)cc1
inactive: [1] 99 % of control | [2] 92 % of control

O=c1[nH]c2cc(Cl)ccc2nc1/C=C(\O)c1ccc(N2CCN(c3ccc(/C(O)=C/c4nc5ccc(Cl)cc5[nH]c4=O)cc3)CC2)cc1
inactive: dose: 60.0 mg/kg/injection, schedule: Q01DX005 (ip), vehicle: Klucel + Tween-80 98 % of control | dose: 120.0 mg/kg/injection, schedule: Q01DX005 (ip), vehicle: Klucel + Tween-80 93 % of control | dose: 240.0 mg/kg/injection, schedule: Q01DX005 (ip), vehicle: Klucel + Tween-80 86 % of control

Cc1cc(NC(=O)C(=O)CC(=O)c2ccc(Cl)c(Cl)c2)no1
inactive: dose: 100.0 mg/kg/injection, schedule: Q01DX001 (ip), vehicle: saline with Tween-80 101 % of control | dose: 200.0 mg/kg/injection, schedule: Q01DX001 (ip), vehicle: saline with Tween-80 108 % of control | dose: 400.0 mg/kg/injection, schedule: Q01DX001 (ip), vehicle: saline with Tween-80 97 % of control
